# From patent US8846711B2, “Heterocyclic acrylamides and their use as pharmaceuticals” (Fab Pharma S.A.S., priority 2009, dated 2014)
# Key:
# [1] = target: recombinant S. aureus FabI enzyme (Staphylococcus aureus (strain MRSA252), UniProt Q6GI75); assay: FabI inhibition, fluorescence based assay; assay type: biochemical; details: in vitro
# Method: Compound inhibitory activity of FabI enzyme is measured in vitro by the […] determination using a fluorescence based assay.
# The protein FabI from S. aureus is prepared and purified using standard methods for recombinant protein expression after cloning of the gene in a prokaryotic expression vector.
# The biochemical activity of the FabI enzyme is assessed using the following method.
# The assay buffer “AB” contained 50 mM ADA (N-(2-acetamido)iminodiacetic acid monosodium salt) pH 6.5, 1 mM dithiothreitol, 0.006% Triton-X100 and 50 mM NaCl.
# The following components are added in a white polystyrene Costar plate (Ref 3912) up to a final volume of 55.5 μL: 1.5 μL DMSO or inhibitor dissolved in DMSO and 54 μL of a FabI/NADPH/NADP+ mixture in AB. After 60 min of pre-incubation at room temperature, the reaction is started by addition of 5 μL of trans-2-octenoyl N-acetylcysteamine thioester (t-o-NAC) to a final volume of 60.5 μL. This reaction mixture is then composed of 2 nM FabI, 40 μM NADPH (Sigma, N7505), 10 μM NADP+ (Sigma, N5755), 100 μM t-O-NAC and compound at defined concentration. Fluorescence intensity of NADPH (λex=360 nm, […]) is measured immediately after t-O-NAC addition (T0), and approximately 50 min later (T50) by a Fluostar Optima (BMG) so as to achieve ±30% of NADPH conversion. Enzyme activity is calculated by first subtracting TO signal to T50 and then subtracting background signal (FabI=0). Percentages of inhibition are calculated against untreated samples (Inhibitor=0) and IC50 are fitted to a classical Langmuir equilibrium model using XLFIT (IDBS).
# S. aureus CIP 54.146 = assay: MIC determination using broth microdilution method; assay type: cell-based; details: Staphylococcus aureus, CIP54 / MSSA, read-out: MIC (μg/ml) S. aureus CIP 54.146
# Method: The compounds of the invention are useful antibacterial agents having a selective spectrum of activity in vitro against bacterial strains relying on FabI and related targets. […] The activity is presented as Minimum Inhibitory Concentration (MIC) expressed in μg/ml and was determined using broth microdilution or Agar dilution methods.
# (§1) Antibacterial activity was determined on strains from Mutabilis internal collection.
# This protocol is compliant with Clinical Laboratory Standards Institute (CLSI) methodology as described in M7-A7 document of the CLSI. The compound to be tested is diluted according to a geometric series of reason 2 in pure DMSO. Dilutions are transferred in sterile polystyrene microplates, followed by mid-log phase bacteria in cation-adjusted Muller-Hinton broth (ca-MHB, Fluka, Reference 90922) with a final inoculum of 5×10^5 cfu/ml. Microplates are incubated overnight at 35° C. MIC is defined as the lowest concentration of antimicrobial agent that completely prevents visible bacterial growth. All manipulations, but compound handling (in pure DMSO), are performed under sterile conditions. The final concentration of DMSO in the plates is 2%.
# [2] = tested on: Staphylococcus aureus NRS100; assay: MIC determination using agar dilution method; assay type: cell-based; details: MRSA / NRS 100, read-out: MIC (μg/ml) NRS100
# Method: as §1
# (§2) This protocol is compliant with Clinical Laboratory Standards Institute (CLSI) methodology as described in M7-A7 document of the CLSI. The compound to be tested is incorporated into Mueller-Hinton Agar medium (Fluka, Reference 70191) at one concentration per plate according to a geometric series of reason 2. Plates are inoculated with mid-log phase bacteria (inoculum=1×10^4 cfu/spot) and incubated overnight at 35° C. […] All manipulations, but compound handling (in pure DMSO), are performed under sterile conditions. The final DMSO concentration of DMSO in the plates is 2%. Vancomycin is used as reference.
# [3] = tested on: Staphylococcus aureus NRS119; assay: MIC determination using agar dilution method; assay type: cell-based; details: MRSA / NRS 119, read-out: MIC (μg/ml) NRS119
# Method: as §1, §2
# [4] = tested on: Staphylococcus aureus NRS120; assay: MIC determination using agar dilution method; assay type: cell-based; details: MRSA / NRS 120, read-out: MIC (μg/ml) NRS120
# Method: as §1, §2
# [5] = tested on: Staphylococcus aureus NRS121; assay: MIC determination using agar dilution method; assay type: cell-based; details: MRSA / NRS 121, read-out: MIC (μg/ml) NRS121
# Method: as §1, §2
# [6] = tested on: Staphylococcus aureus NRS123; assay: MIC determination using agar dilution method; assay type: cell-based; details: MRSA / NRS 123, read-out: MIC (μg/ml) NRS123
# Method: as §1, §2
# [7] = tested on: Staphylococcus aureus NRS127; assay: MIC determination using agar dilution method; assay type: cell-based; details: MRSA / NRS 127, read-out: MIC (μg/ml) NRS127
# Method: as §1, §2
# [8] = tested on: Staphylococcus aureus NRS128; assay: MIC determination using agar dilution method; assay type: cell-based; details: MSSA / NRS 128, read-out: MIC (μg/ml) NRS128
# Method: as §1, §2
# [9] = tested on: Staphylococcus aureus NRS130; assay: MIC determination using agar dilution method; assay type: cell-based; details: MSSA / NRS 130, read-out: MIC (μg/ml) NRS130
# Method: as §1, §2
# [10] = tested on: Staphylococcus aureus NRS192; assay: MIC determination using agar dilution method; assay type: cell-based; details: MRSA / NRS 192, read-out: MIC (μg/ml) NRS192
# Method: as §1, §2
# [11] = tested on: Staphylococcus aureus NRS22; assay: MIC determination using agar dilution method; assay type: cell-based; details: MRSA / NRS 22, read-out: MIC (μg/ml) NRS22
# Method: as §1, §2
# [12] = tested on: Staphylococcus aureus NRS262; assay: MIC determination using agar dilution method; assay type: cell-based; details: MSSA / NRS 262, read-out: MIC (μg/ml) NRS262
# Method: as §1, §2
# [13] = tested on: Staphylococcus aureus NRS269; assay: MIC determination using agar dilution method; assay type: cell-based; details: MRSA / NRS 269, read-out: MIC (μg/ml) NRS269
# Method: as §1, §2
# [14] = tested on: Staphylococcus aureus NRS382; assay: MIC determination using agar dilution method; assay type: cell-based; details: MRSA / NRS 382, read-out: MIC (μg/ml) NRS382
# Method: as §1, §2
# [15] = tested on: Staphylococcus aureus NRS383; assay: MIC determination using agar dilution method; assay type: cell-based; details: MRSA / NRS 383, read-out: MIC (μg/ml) NRS383
# Method: as §1, §2
# [16] = tested on: Staphylococcus aureus NRS384; assay: MIC determination using agar dilution method; assay type: cell-based; details: MRSA / NRS 384, read-out: MIC (μg/ml) NRS384
# Method: as §1, §2
# [17] = tested on: Staphylococcus aureus NRS385; assay: MIC determination using agar dilution method; assay type: cell-based; details: MRSA / NRS 385, read-out: MIC (μg/ml) NRS385
# Method: as §1, §2
# [18] = tested on: Staphylococcus aureus NRS386; assay: MIC determination using agar dilution method; assay type: cell-based; details: MRSA / NRS 386, read-out: MIC (μg/ml) NRS386
# Method: as §1, §2
# [19] = tested on: Staphylococcus aureus NRS482; assay: MIC determination using agar dilution method; assay type: cell-based; details: MRSA / NRS 482, read-out: MIC (μg/ml) NRS482
# Method: as §1, §2
# [20] = tested on: Staphylococcus aureus NRS483; assay: MIC determination using agar dilution method; assay type: cell-based; details: MRSA / NRS 483, read-out: MIC (μg/ml) NRS483
# Method: as §1, §2
# [21] = tested on: Staphylococcus aureus NRS484; assay: MIC determination using agar dilution method; assay type: cell-based; details: MRSA / NRS 484, read-out: MIC (μg/ml) NRS484
# Method: as §1, §2
# [22] = tested on: Staphylococcus aureus strain ATCC 29213; assay: In vivo antibacterial activity, thigh infection model in neutropenic Swiss mice; details: 50 mg/kg subcutaneously, 1.5 h after infection, FIG. 2
# E. coli FabI = E. coli FabI (Escherichia coli (strain K12), UniProt P0AEK4); details: literature (Ward et al.); cited from earlier work
# Sequence of E. coli FabI (P0AEK4 whole entry): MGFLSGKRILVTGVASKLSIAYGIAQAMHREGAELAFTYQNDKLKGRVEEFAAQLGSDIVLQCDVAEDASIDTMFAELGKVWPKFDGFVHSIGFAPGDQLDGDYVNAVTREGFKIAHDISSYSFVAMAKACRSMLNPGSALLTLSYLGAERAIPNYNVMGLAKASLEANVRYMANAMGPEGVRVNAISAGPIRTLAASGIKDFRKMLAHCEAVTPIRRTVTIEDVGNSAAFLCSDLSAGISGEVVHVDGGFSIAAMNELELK
smiles,measurement,setting,value
"O=C1CCc2cc(/C=C/C(=O)N3CCC(Oc4ccccc4)C3)cnc2N1 (stereo not drawn) [Example 10, 6-[(1E)-3-Oxo-3-(3-phenoxypyrrolidin-1-yl)prop-1-en-1-yl]-3,4-dihydro-1,8-naphthyridin-2(1H)-one]",IC50,[1],120 nM
same,MIC,S. aureus CIP 54.146,4 µg/mL
"CCCCCOC1CN(C(=O)/C=C/c2cnc3c(c2)CCC(=O)N3)C1 [Example 15, 6-{(1E)-3-Oxo-3-[3-(pentyloxy)azetidin-1-yl]prop-1-en-1-yl}-3,4-dihydro-1,8-naphthyridin-2(1H)-one]",IC50,[1],25 nM
same,MIC,S. aureus CIP 54.146,4 µg/mL
same,MIC,[2],1 µg/mL
same,MIC,[3],2 µg/mL
same,MIC,[4],2 µg/mL
same,MIC,[5],2 µg/mL
same,MIC,[6],2 µg/mL
same,MIC,[7],2 µg/mL
same,MIC,[8],1 µg/mL
same,MIC,[9],2 µg/mL
same,MIC,[10],4 µg/mL
same,MIC,[11],4 µg/mL
same,MIC,[12],4 µg/mL
same,MIC,[13],4 µg/mL
same,MIC,[14],4 µg/mL
same,MIC,[15],4 µg/mL
same,MIC,[16],4 µg/mL
same,MIC,[17],4 µg/mL
same,MIC,[18],4 µg/mL
same,MIC,[19],4 µg/mL
same,MIC,[20],4 µg/mL
same,MIC,[21],4 µg/mL
same,in vivo antibacterial activity (bacterial burden in the thigh of infected mice),[22],able to protect mice against thigh dissemination
"CN[C@H](CC(C)C)C(=O)N[C@H]1C(=O)N[C@@H](CC(N)=O)C(=O)N[C@H]2C(=O)N[C@H]3C(=O)N[C@H](C(=O)N[C@H](C(=O)O)c4cc(O)cc(O)c4-c4cc3ccc4O)[C@H](O)c3ccc(c(Cl)c3)Oc3cc2cc(c3O[C@@H]2O[C@H](CO)[C@@H](O)[C@H](O)[C@H]2O[C@H]2C[C@](C)(N)[C@H](O)[C@H](C)O2)Oc2ccc(cc2Cl)[C@H]1O [Vancomycin, reference compound]",MIC,[2],1 µg/mL
same,MIC,[3],1 µg/mL
same,MIC,[4],1 µg/mL
same,MIC,[5],1 µg/mL
same,MIC,[6],1 µg/mL
same,MIC,[7],1 µg/mL
same,MIC,[8],1 µg/mL
same,MIC,[9],1 µg/mL
same,MIC,[10],1 µg/mL
same,MIC,[11],4 µg/mL
same,MIC,[12],1 µg/mL
same,MIC,[13],2 µg/mL
same,MIC,[14],1 µg/mL
same,MIC,[15],0.5 µg/mL
same,MIC,[16],1 µg/mL
same,MIC,[17],1 µg/mL
same,MIC,[18],1 µg/mL
same,MIC,[19],1 µg/mL
same,MIC,[20],1 µg/mL
same,MIC,[21],1 µg/mL
"CCCC1CCN(C(=O)/C=C/c2cnc3c(c2)CCC(=O)N3)CC1 [Example 8, 6-[(1E)-3-Oxo-3-(4-propylpiperidin-1-yl)prop-1-en-1-yl]-3,4-dihydro-1,8-naphthyridin-2(1H)-one]",IC50,[1],41 nM
same,MIC,S. aureus CIP 54.146,4 µg/mL
Oc1cc(Cl)ccc1Oc1ccc(Cl)cc1Cl [Triclosan],inhibition of E. coli FabI,E. coli FabI,"reversible, tight-binding inhibitor"
